pEC50, pIC50: −log10 of the molar value. Converted amounts (≈) assume the structure as drawn.
What was measured:
Nakaseomyces glabratus = assay: Antifungal activity against Candida glabrata clinical isolate after 24 hrs by broth microdilution method; type: functional
Candida parapsilosis = assay: Antifungal activity against Candida parapsilosis clinical isolate after 24 hrs by broth microdilution method; type: functional; conditions: Lodderomyces parapsilosis
Klebsiella oxytoca = assay: Antibacterial activity against Klebsiella oxytoca clinical isolate after 18 to 22 hrs by broth microdilution method; type: functional
Enterococcus faecalis = assay: Antibacterial activity against Streptococcus faecalis clinical isolate after 18 to 22 hrs by broth microdilution method; type: functional
[Candida] sake = Antifungal activity against Candida sake clinical isolate after 24 hrs by broth microdilution method; type: functional; conditions: Fermentozyma sake
Candida albicans = assay: Antifungal activity against Candida albicans clinical isolate after 24 hrs by broth microdilution method; type: functional
Staphylococcus warneri = assay: Antibacterial activity against Staphylococcus warneri clinical isolate after 18 to 22 hrs by broth microdilution method; type: functional
Escherichia coli = assay: Antibacterial activity against Escherichia coli after clinical isolate 18 to 22 hrs by broth microdilution method; type: functional
[1] = test system: Streptococcus sp. (viridans group); assay: Antibacterial activity against Streptococcus alpha-hemolyticus clinical isolate after 18 to 22 hrs by broth microdilution method
Candida tropicalis = assay: Antifungal activity against Candida tropicalis clinical isolate after 24 hrs by broth microdilution method; type: functional
Proteus mirabilis = assay: Antibacterial activity against Proteus mirabilis clinical isolate after 18 to 22 hrs by broth microdilution method; type: functional
Pichia kudriavzevii = assay: Antifungal activity against Candida krusei clinical isolate after 24 hrs by broth microdilution method; type: functional
Staphylococcus aureus = assay: Antibacterial activity against Staphylococcus aureus clinical isolate after 18 to 22 hrs by broth microdilution method; type: functional
Enterobacter sp. = assay: Antibacterial activity against Enterobacter spp. clinical isolate after 18 to 22 hrs by broth microdilution method; type: functional
[2] = Antioxidant activity of the compound after 90 mins by phosphomolybdenum assay; type: physicochemical
[3] = Antioxidant activity of the compound after 30 mins by CUPRAC method; type: physicochemical
[4] = Cytotoxicity against human Hep2 cells assessed as cell survival at 5 ug/ml after 24 hrs by trypan blue exclusion assay; type: cell-based, HEp-2; conditions: read-out: Survival
[5] = Metal chelating activity of the compound assessed as ferrous ion complex formation after 10 mins; type: physicochemical
[6] = Cytotoxicity against human Hep2 cells assessed as cell survival at 0.05 ug/ml after 24 hrs by trypan blue exclusion assay; type: cell-based, HEp-2; conditions: read-out: Survival
[7] = Cytotoxicity against human Hep2 cells assessed as cell survival at 50 ug/ml after 24 hrs by trypan blue exclusion assay; type: cell-based, HEp-2; conditions: read-out: Survival
[8] = Cytotoxicity against human Hep2 cells assessed as reduction in cell viability after 24 hrs by trypan blue exclusion assay; type: cell-based, HEp-2
[9] = Antioxidant activity assessed as ABTS radical scavenging activity after 30 mins under dark conditions; type: physicochemical
[10] = Antioxidant activity of the compound after 30 mins by FRAP assay; type: physicochemical
[11] = Antioxidant activity assessed as DPPH radical scavenging activity after 30 mins under dark conditions; type: physicochemical
[12] = Cytotoxicity against human Hep2 cells assessed as cell survival at 0.5 ug/ml after 24 hrs by trypan blue exclusion assay; type: cell-based, HEp-2; conditions: read-out: Survival
[13] = Cytotoxicity against human Hep2 cells assessed as cell survival at 10 ug/ml after 24 hrs by trypan blue exclusion assay; type: cell-based, HEp-2; conditions: read-out: Survival

Structure (SMILES)	MIC (Nakaseomyces glabratus) [µg/mL]	MIC (Candida parapsilosis) [µg/mL]	MIC (Klebsiella oxytoca) [µg/mL]	MIC (Enterococcus faecalis) [µg/mL]	MIC ([Candida] sake) [µg/mL]	MIC (Candida albicans) [µg/mL]	MIC (Staphylococcus warneri) [µg/mL]	MIC (Escherichia coli) [µg/mL]	MIC (Candida tropicalis) [µg/mL]	MIC (Proteus mirabilis) [µg/mL]	MIC (Pichia kudriavzevii) [µg/mL]	MIC (Staphylococcus aureus) [µg/mL]	MIC (Enterobacter sp.) [µg/mL]	MIC [1] [µg/mL]	pEC50 [2]	pEC50 [3]	pIC50 [5]	pIC50 [9]	pEC50 [10]	pIC50 [11]	further results
C/C(=N\N=C1/SCC(=O)N1Cc1cccc(Cl)c1)c1ccccn1	2 (≈ 5.57 µM)	2 (≈ 5.57 µM)	> 256	> 256	16 (≈ 44.6 µM)	2 (≈ 5.57 µM)	> 256	> 256	2 (≈ 5.57 µM)	> 256	4 (≈ 11.1 µM)	> 256	> 256	> 256	2.69	2.85	2.56	1.57	2.31	< 2.30	viability at 24 h, 5 ug/ml [4]: 85%; viability at 24 h, 0.05 ug/ml [6]: 94%; viability at 24 h, 50 ug/ml [7]: 0%; CC50 at 24 h [8]: 21 µg/mL (≈ 58.5 µM); viability at 24 h, 0.5 ug/ml [12]: 87.5%; viability at 24 h, 10 ug/ml [13]: 69%
C/C(=N/N=C1\SCC(=O)N1Cc1ccc(Cl)cc1)c1ccccn1	4 (≈ 11.1 µM)	4 (≈ 11.1 µM)	> 256	> 256	8 (≈ 22.3 µM)	8 (≈ 22.3 µM)	> 256	> 256	8 (≈ 22.3 µM)	> 256	8 (≈ 22.3 µM)	> 256	> 256	> 256							
C/C(=N/N=C1\SCC(=O)N1Cc1ccc(F)cc1)c1cccs1	2 (≈ 5.76 µM)	4 (≈ 11.5 µM)	> 256	> 256	8 (≈ 23 µM)	2 (≈ 5.76 µM)	> 256	> 256	2 (≈ 5.76 µM)	> 256	2 (≈ 5.76 µM)	> 256	> 256	> 256	2.86	2.73	2.41	1.67	2.69	< 2.30	viability at 24 h, 5 ug/ml [4]: 68%; viability at 24 h, 0.05 ug/ml [6]: 83%; viability at 24 h, 50 ug/ml [7]: 0%; CC50 at 24 h [8]: 15 µg/mL (≈ 43.2 µM); viability at 24 h, 0.5 ug/ml [12]: 76%; viability at 24 h, 10 ug/ml [13]: 52%
C/C(=N\N=C1/SCC(=O)N1Cc1cccc(Cl)c1)c1cccs1	2 (≈ 5.5 µM)	2 (≈ 5.5 µM)	> 256	> 256	2 (≈ 5.5 µM)	2 (≈ 5.5 µM)	> 256	> 256	2 (≈ 5.5 µM)	> 256	2 (≈ 5.5 µM)	> 256	> 256	> 256	2.94	2.80	2.79	1.69	2.63	< 2.30	viability at 24 h, 5 ug/ml [4]: 82%; viability at 24 h, 0.05 ug/ml [6]: 94%; viability at 24 h, 50 ug/ml [7]: 0%; CC50 at 24 h [8]: 21 µg/mL (≈ 57.7 µM); viability at 24 h, 0.5 ug/ml [12]: 89%; viability at 24 h, 10 ug/ml [13]: 63%
C/C(=N/N=C1\SCC(=O)N1Cc1ccc(F)cc1)c1ccccn1	2 (≈ 5.84 µM)	4 (≈ 11.7 µM)	> 256	> 256	2 (≈ 5.84 µM)	2 (≈ 5.84 µM)	> 256	> 256	2 (≈ 5.84 µM)	> 256	8 (≈ 23.4 µM)	> 256	> 256	> 256	2.94	2.76	2.44	1.79	2.21	< 2.30	viability at 24 h, 5 ug/ml [4]: 70%; viability at 24 h, 0.05 ug/ml [6]: 91%; viability at 24 h, 50 ug/ml [7]: 0%; CC50 at 24 h [8]: 16 µg/mL (≈ 46.7 µM); viability at 24 h, 0.5 ug/ml [12]: 83%; viability at 24 h, 10 ug/ml [13]: 42%
C/C(=N\N=C1/SCC(=O)N1Cc1cccc([N+](=O)[O-])c1)c1ccccn1	2 (≈ 5.41 µM)	8 (≈ 21.7 µM)	> 256	> 256	4 (≈ 10.8 µM)	4 (≈ 10.8 µM)	> 256	> 256	8 (≈ 21.7 µM)	> 256	8 (≈ 21.7 µM)	> 256	> 256	> 256							
C/C(=N/N=C1\SCC(=O)N1Cc1ccc(N)cc1)c1ccccn1	8 (≈ 23.6 µM)	8 (≈ 23.6 µM)	> 256	> 256	2 (≈ 5.89 µM)	2 (≈ 5.89 µM)	> 256	> 256	2 (≈ 5.89 µM)	> 256	8 (≈ 23.6 µM)	> 256	> 256	> 256							
C/C(=N\N=C1/SCC(=O)N1Cc1cccc([N+](=O)[O-])c1)c1cccs1	2 (≈ 5.34 µM)	8 (≈ 21.4 µM)	> 256	> 256	4 (≈ 10.7 µM)	4 (≈ 10.7 µM)	> 256	> 256	4 (≈ 10.7 µM)	> 256	2 (≈ 5.34 µM)	> 256	> 256	> 256							
C/C(=N/N=C1\SCC(=O)N1Cc1ccccc1[N+](=O)[O-])c1ccccn1	2 (≈ 5.41 µM)	16 (≈ 43.3 µM)	> 256	> 256	2 (≈ 5.41 µM)	2 (≈ 5.41 µM)	> 256	> 256	4 (≈ 10.8 µM)	> 256	4 (≈ 10.8 µM)	> 256	> 256	> 256							
O=C1CS/C(=N\N=C2CCCC2)N1Cc1ccccc1[N+](=O)[O-]	2 (≈ 6.02 µM)	16 (≈ 48.1 µM)	> 256	> 256	4 (≈ 12 µM)	4 (≈ 12 µM)	> 256	> 256	8 (≈ 24.1 µM)	> 256	4 (≈ 12 µM)	> 256	> 256	> 256							
Clc1ccccc1C(c1ccccc1)(c1ccccc1)n1ccnc1 [CLOTRIMAZOLE]	2 (≈ 5.8 µM)	2 (≈ 5.8 µM)			2 (≈ 5.8 µM)	2 (≈ 5.8 µM)			2 (≈ 5.8 µM)		2 (≈ 5.8 µM)										viability at 24 h, 50 ug/ml [7]: 10.2%; CC50 at 24 h [8]: 18 µg/mL (≈ 52.2 µM)
O=C(O)CN(CCN(CC(=O)O)CC(=O)O)CC(=O)O [EDETIC ACID]																	4.70				
Cc1c(C)c2c(c(C)c1O)CCC(C)(C(=O)O)O2 (configuration not stated) [TROLOX]															2.95	3.62		3.18	3.80	3.40	

Further lines, with some results ahead:

MIC (Nakaseomyces glabratus) [µg/mL]	MIC (Candida parapsilosis) [µg/mL]	MIC (Klebsiella oxytoca) [µg/mL]	MIC (Enterococcus faecalis) [µg/mL]	MIC ([Candida] sake) [µg/mL]	MIC (Candida albicans) [µg/mL]	MIC (Staphylococcus warneri) [µg/mL]	MIC (Escherichia coli) [µg/mL]	MIC (Candida tropicalis) [µg/mL]	MIC (Proteus mirabilis) [µg/mL]	MIC (Pichia kudriavzevii) [µg/mL]	MIC (Staphylococcus aureus) [µg/mL]	MIC (Enterobacter sp.) [µg/mL]	Structure (SMILES)	MIC [1] [µg/mL]	pEC50 [2]	pEC50 [3]	pIC50 [5]	pIC50 [9]	pEC50 [10]	pIC50 [11]	further results
2 (≈ 5.5 µM)	4 (≈ 11 µM)	> 256	> 256	8 (≈ 22 µM)	4 (≈ 11 µM)	> 256	> 256	8 (≈ 22 µM)	> 256	8 (≈ 22 µM)	> 256	> 256	C/C(=N/N=C1\SCC(=O)N1Cc1ccc(Cl)cc1)c1cccs1	> 256							
16 (≈ 52.9 µM)	64 (≈ 212 µM)	> 256	> 256	256 (≈ 847 µM)	2 (≈ 6.61 µM)	> 256	> 256	32 (≈ 106 µM)	> 256	16 (≈ 52.9 µM)	> 256	> 256	Nc1ccc(CN2C(=O)CS/C2=N\N=C2CCCC2)cc1	> 256							
1 (≈ 3.62 µM)	2 (≈ 7.24 µM)	> 256	> 256	4 (≈ 14.5 µM)	4 (≈ 14.5 µM)	> 256	> 256	32 (≈ 116 µM)	> 256	2 (≈ 7.24 µM)	> 256	> 256	CC(C)=N/N=C1\SCC(=O)N1Cc1ccc(N)cc1	> 256	2.92	2.75	< 2.30	2.69	2.56	< 2.30	
16 (≈ 48.1 µM)	4 (≈ 12 µM)	> 256	> 256	2 (≈ 6.02 µM)	4 (≈ 12 µM)	> 256	> 256	4 (≈ 12 µM)	> 256	8 (≈ 24.1 µM)	> 256	> 256	O=C1CS/C(=N\N=C2CCCC2)N1Cc1cccc([N+](=O)[O-])c1	> 256							
8 (≈ 23.2 µM)	8 (≈ 23.2 µM)	> 256	> 256	2 (≈ 5.81 µM)	4 (≈ 11.6 µM)	> 256	> 256	2 (≈ 5.81 µM)	> 256	8 (≈ 23.2 µM)	> 256	> 256	C/C(=N/N=C1\SCC(=O)N1Cc1ccc(N)cc1)c1cccs1	> 256							
4 (≈ 13.1 µM)	16 (≈ 52.2 µM)	> 256	> 256	4 (≈ 13.1 µM)	2 (≈ 6.53 µM)	> 256	> 256	8 (≈ 26.1 µM)	> 256	2 (≈ 6.53 µM)	> 256	> 256	CC(C)=N/N=C1\SCC(=O)N1Cc1ccccc1[N+](=O)[O-]	> 256							
